Reference: ChEMBL document CHEMBL1201862, “PubChem BioAssay data set” (2004)
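Five concentrations, 48 hours, 96-well plates. GI50 is the concentration that inhibits growth by half.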 Activity calls are given as the source filed them. No stated cut-off is given here; in the data, active = GI50 up to about 1.1 µM and inactive = higher.

Assays:
Experiment in all cases: NCI anticancer screen, dose series, 48 h
MCF7 = test system: MCF7
NCI-H23 = test system: NCI-H23
SNB-19 = test system: SNB-19
DU-145 = test system: DU-145
SK-OV-3 = test system: SK-OV-3
CCRF-CEM = test system: CCRF-CEM
Hs-578T = test system: Hs-578T
SK-MEL-5 = test system: SK-MEL-5
OVCAR-5 = test system: OVCAR-5
NCI-H522 = test system: NCI-H522
HOP-92 = test system: HOP-92
SW-620 = test system: SW-620
HOP-62 = test system: HOP-62
SF-268 = test system: SF-268
HCT-15 = test system: HCT-15
OVCAR-3 = test system: OVCAR-3
HL-60 = test system: HL-60
MOLT-4 = test system: MOLT-4
OVCAR-4 = test system: OVCAR-4
NCI-H460 = test system: NCI-H460

| SMILES | GI50 (MCF7) | GI50 (NCI-H23) | GI50 (SNB-19) | GI50 (DU-145) | GI50 (SK-OV-3) | GI50 (CCRF-CEM) | GI50 (Hs-578T) | GI50 (SK-MEL-5) | GI50 (OVCAR-5) | GI50 (NCI-H522) | GI50 (HOP-92) | GI50 (SW-620) | GI50 (HOP-62) | GI50 (SF-268) | GI50 (HCT-15) | GI50 (OVCAR-3) | GI50 (HL-60) | GI50 (MOLT-4) | GI50 (OVCAR-4) | GI50 (NCI-H460) |
| --- | --- | --- | --- | --- | --- | --- | --- | --- | --- | --- | --- | --- | --- | --- | --- | --- | --- | --- | --- | --- |
| Nc1ncnc2c1ccn2CC=C(CO)CO | > 100 µM (inactive) | > 100 µM (inactive) | > 100 µM (inactive) | > 100 µM (inactive) | > 100 µM (inactive) | > 100 µM (inactive) | > 100 µM (inactive) | > 100 µM (inactive) | > 100 µM (inactive) | > 100 µM (inactive) | > 100 µM (inactive) | > 100 µM (inactive) | > 100 µM (inactive) | > 100 µM (inactive) | > 100 µM | > 100 µM (inactive) | > 100 µM (inactive) | > 100 µM (inactive) | > 100 µM (inactive) | > 100 µM (inactive) |
| CCC(=O)C(CCN1CCC2(CCCc3ccccc32)CC1)(c1ccccc1)c1ccccc1 | 2.86 µM (inactive) | 2.15 µM (inactive) | 4.75 µM (inactive) | 3.1 µM (inactive) | 3.19 µM (inactive) | 1.78 µM (inactive) | 2.33 µM (inactive) | 1.49 µM (inactive) | 3.74 µM (inactive) | 1.75 µM (inactive) | 1.47 µM (inactive) | 2.87 µM (inactive) | 3.28 µM (inactive) | 5.92 µM (inactive) | 2.55 µM | 2.2 µM (inactive) | 1.57 µM (inactive) | 1.41 µM (inactive) | 3.52 µM (inactive) | 2.52 µM (inactive) |
| CCCCc1ccc(Nc2nc3c(ncn3C3CC(O)C(CN=[N+]=[N-])O3)c(=O)[nH]2)cc1 (stereo not given) | > 100 µM (inactive) | > 100 µM (inactive) | > 100 µM (inactive) | > 100 µM (inactive) | > 100 µM (inactive) | > 100 µM (inactive) | > 100 µM (inactive) | > 100 µM (inactive) | > 100 µM (inactive) | > 100 µM (inactive) | > 100 µM (inactive) | > 100 µM (inactive) | > 100 µM (inactive) | > 100 µM (inactive) | > 100 µM | > 100 µM (inactive) | > 100 µM (inactive) | > 100 µM (inactive) | > 100 µM (inactive) | > 100 µM (inactive) |
| C(/Cc1ccc2c(c1)OCO2)=N\N=C1NCCCN1 | 26.9 µM (inactive) | > 100 µM (inactive) | > 100 µM (inactive) | 67.5 µM (inactive) | 42.1 µM (inactive) | 48.5 µM (inactive) | > 100 µM (inactive) | 25 µM (inactive) | 59 µM (inactive) | 55.3 µM (inactive) | 70.1 µM (inactive) | > 100 µM (inactive) | 28.4 µM (inactive) | 93.8 µM (inactive) | > 100 µM | 80.2 µM (inactive) | 31.6 µM (inactive) | 24.7 µM (inactive) | 98.9 µM (inactive) | 19 µM (inactive) |
| CC1(C)CC(=O)c2c(nc(SSc3nc4c(c(-c5ccc(Br)cc5)c3C#N)C(=O)CC(C)(C)C4)c(C#N)c2-c2ccc(Br)cc2)C1 | > 10 µM (inactive) | > 10 µM (inactive) | > 10 µM (inactive) | > 10 µM (inactive) | > 10 µM (inactive) | > 10 µM (inactive) | > 10 µM (inactive) | > 10 µM (inactive) | > 10 µM (inactive) | > 10 µM (inactive) | > 10 µM (inactive) | > 10 µM (inactive) | > 10 µM (inactive) | > 10 µM (inactive) | > 10 µM | > 10 µM (inactive) | > 10 µM (inactive) | > 10 µM (inactive) | > 10 µM (inactive) | > 10 µM (inactive) |
